Laboratory results as given in patent US20080132536A1, “PYRAZOLO [3,4-B] PYRIDINE COMPOUNDS, AND THEIR USE AS PDE4 INHIBITORS” (Glaxo Group Limited, priority 2003, published 2008).

How the values were obtained:
[1] = Text: Micronisation usually involves subjecting the compound/salt to collisional and/or abrasional forces in a fast-flowing circular or spiral/vortex-shaped airstream often including a cyclone component.
In particle size measurements, D90, D50 and D10 respectively mean that 90%, 50% and 10% of the material is less than the micron size specified. D50 is the median particle size. DV90, DV50 and […] respectively mean that 90%, 50% and 10% by volume of the material is less than the micron size specified. DM90, DM50 and DM10 respectively mean that 90%, 50% and 10% by weight of the material is less than the micron size specified.
Laser diffraction measurement of particle size can use a dry method (wherein a suspension of the compound/salt in an airflow crosses the laser beam) or a wet method [wherein a suspension of the compound/salt in a liquid dispersing medium, such as isooctane or (e.g. if compound is soluble in isooctane) 0.1% Tween 80 in water, crosses the laser beam]. With laser diffraction, particle size is preferably calculated using the Fraunhofer calculation; and/or preferably a Malvern Mastersizer or Sympatec apparatus is used for measurement.
• Purpose: To micronise Example 73, 75, 98, 283, 304, 306, 307, 308, 309, 310, 311, 312, 313, 314 or 314A or 333 (described hereinafter), usually in an amount of approximately 600-1000 mg thereof, using a Jetpharma MC 1 micronizer. • The parent (unmicronised) and micronised materials are analyzed for particle size by laser diffraction and crystallinity by PXRD.
The micronizer is assembled. The narrow head of the venturi inlet is positioned below and slightly forward of the material inlet port and is measured with a micro-caliper to make sure that it is inserted correctly. The ring (R) and venturi (V) pressures are adjusted according to the values specified in the experimental design (refer to experimental section below) by adjusting the valves on the pressure gauges on the micronizer. The setup is checked for leakage by observing if there is any fluctuation in the reading of the pressure gauges.
Balance performance is checked with calibration weights. Specified amount of the parent material (see e.g. section on experimental run Procedure 1 for Example 307) is fed into the input container of the micronizer using a spatula. The input container plus material is weighed. The equipment pressure is monitored during the micronization process.
Upon completion of the micronising run, the nitrogen supply is shut off and the micronised material is allowed to settle into the micronizer container. The micronised powder in the micronizer container (collection vessel) and the cyclone (above the recovery vessel) are collected together into a pre-weighed and labelled collection vial. The weight of the micronised material is recorded. The input container is re-weighed in order to calculate the amount of input material by difference. The micronizer is disassembled and residual PDE4 compound on the micronizer inner surface is rinsed with 70/30 isopropyl alcohol/water and collected into a flask. The micronizer is then thoroughly cleaned in a Lancer washing machine and dried before subsequent runs are performed.

[2] = test system: conscious ferret; assay: In Vivo Assay 4: therapeutic index of orally-administered PDE4 inhibitors in the conscious ferret (LPS-induced pulmonary neutrophilia and emesis); parameters: species or system ferret (Mustela Pulorius Furo); settings: p.o.
Method: PDE4 inhibitors are prepared for oral (p.o.) administration by dissolving in a fixed volume (ca. 1 ml) of acetone and then adding cremophor to ca. 20% of the final volume. Acetone is evaporated by directing a flow of nitrogen gas onto the solution. Once the acetone is removed, the solution is made up to final volume with distilled water. LPS is dissolved in phosphate buffered saline.
Male ferrets (Mustela Pulorius Furo, weighing 1-2 kg) are transported and allowed to acclimatise for not less than 7 days. The diet comprises SDS diet C pelleted food given ad lib with Whiskers™ cat food given 3 times per week. The animals are supplied with pasteurised animal grade drinking water changed daily.
PDE4 inhibitors are administered orally (p.o.), using a dose volume of ca. 1 ml/kg. […] The animals are constantly observed and any emetic episodes (retching and vomiting) or behavioural changes are recorded. […]
About thirty minutes after oral dosing with compound or vehicle control, the ferrets are placed into sealed perspex containers and exposed to an aerosol of LPS (ca. 30 μg/ml=ca. 30 ug/ml) for ca. 10 minutes. […] All emetic episodes and behavioural changes are recorded.
About six hours after LPS exposure the animals are killed by overdose of sodium pentobarbitone administered intraperitoneally. […] From this, the total number of neutrophils in the BAL sample is determined. […]

[3] = micronised, V = 5 to 7 bar, R = 3 to 4 bar

Particle Size Data D10 (micronised material) [1, 3]	Particle Size Data D50 (micronised material) [1, 3]	Particle Size Data D90 (micronised material) [1, 3]	Particle Size Data D10 (unmicronised material) ([1]; unmicronised)	Particle Size Data D50 (unmicronised material) ([1]; unmicronised)	Particle Size Data D90 (unmicronised material) ([1]; unmicronised)	Structure (SMILES)	D20 for emesis (dose giving 20% incidence of emesis) [2]	D50 for ferret neutrophilia (dose giving 50% inhibition of LPS-induced pulmonary neutrophilia) [2]
D10 = 0.84 microns	D50 = 1.56 microns	D90 = 2.74 microns	D10 = 2.48 microns	D50 = 8.98 microns	D90 = 24.14 microns	CCC(NC(=O)c1cnc2c(cnn2CC)c1NC1CCOCC1)c1ccc(C)cc1C.Cl (single isomer, unassigned; enantiomer 2) [Example 307, N-[1-(2,4-dimethylphenyl)propyl]-1-ethyl-4-(tetrahydro-2H-pyran-4-ylamino)-1H-pyrazolo[3,4-b]pyridine-5-carboxamide (Enantiomer 2) hydrochloride]		
						O=C(Nc1c(Cl)cncc1Cl)c1ccc(OC(F)F)c(OCC2CC2)c1 [roflumilast]	about 0.46 mg/kg	about 0.42 mg/kg
